Our source for the Ki, Emax and EC50 values is patent US20020028809A1 (SUNTORY LIMITED, priority 1999, published 2002).

Where two headings read alike, the source gives them in different places.

For test [1], the target named is T1, α4β2 subtype of nicotinic acetylcholine receptors (Rattus norvegicus, UniProt P09483+P12390).
T1 construct: examined using rat brain membrane obtained from whole homogenized brain; from tissue; host or cells: whole brain of Fischer-344 male rats, membrane pellet
Nature of the test: Binding assays at α4β2 subtype of nicotinic acetylcholine receptors ([3H]-cytisine, rat brain membrane).

In test [2] the target is T2, human α4β2 subtype of nicotinic acetylcholine receptors (Homo sapiens, UniProt P17787+P43681).
T2 construct: expressed in transfected cells; host or cells: Xenopus laevis oocytes injected with 50 ng each of α4 and β2 cRNA (pSP64 polyA vector)
T2 sequence (P43681 29-627 limits assumed): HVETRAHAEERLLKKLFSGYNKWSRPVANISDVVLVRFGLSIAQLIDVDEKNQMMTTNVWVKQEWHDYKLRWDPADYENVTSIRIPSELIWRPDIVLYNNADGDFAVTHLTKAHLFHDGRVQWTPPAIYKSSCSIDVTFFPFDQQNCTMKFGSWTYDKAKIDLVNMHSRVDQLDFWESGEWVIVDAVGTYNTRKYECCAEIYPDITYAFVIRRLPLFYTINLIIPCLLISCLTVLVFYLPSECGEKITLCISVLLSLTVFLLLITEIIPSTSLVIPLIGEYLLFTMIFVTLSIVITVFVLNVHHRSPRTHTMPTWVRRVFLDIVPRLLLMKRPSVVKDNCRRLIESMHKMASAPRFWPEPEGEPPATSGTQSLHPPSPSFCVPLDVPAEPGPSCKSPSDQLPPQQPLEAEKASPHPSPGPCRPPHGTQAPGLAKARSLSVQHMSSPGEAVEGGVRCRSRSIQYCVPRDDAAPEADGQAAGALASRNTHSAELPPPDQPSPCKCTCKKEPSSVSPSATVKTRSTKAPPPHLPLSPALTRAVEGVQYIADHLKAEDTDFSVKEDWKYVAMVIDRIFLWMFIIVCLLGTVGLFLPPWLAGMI
T2 sequence (P17787 26-502): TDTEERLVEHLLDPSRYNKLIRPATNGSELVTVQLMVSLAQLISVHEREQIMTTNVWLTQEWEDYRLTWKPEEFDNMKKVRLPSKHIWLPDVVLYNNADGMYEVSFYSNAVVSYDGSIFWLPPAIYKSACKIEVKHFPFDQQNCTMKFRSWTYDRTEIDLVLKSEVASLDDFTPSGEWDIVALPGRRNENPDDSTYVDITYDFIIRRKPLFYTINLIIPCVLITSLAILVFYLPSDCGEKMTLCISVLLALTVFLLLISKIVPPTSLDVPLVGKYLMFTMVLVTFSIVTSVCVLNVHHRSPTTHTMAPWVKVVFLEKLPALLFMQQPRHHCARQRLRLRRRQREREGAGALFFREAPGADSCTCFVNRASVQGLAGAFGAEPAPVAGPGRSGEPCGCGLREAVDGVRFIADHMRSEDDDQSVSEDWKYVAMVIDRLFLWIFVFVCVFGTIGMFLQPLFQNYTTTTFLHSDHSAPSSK
Nature of the test: Agonist activities at human α4β2 subtype of nicotinic acetylcholine receptors expressed in Xenopus oocytes (membrane potential holding method). To be noted: for Emax at 100 µM: read-out: Agonist activity: control % by response at 100 μM of the test compound. Format: cell-based. On the procedure: Agonist effect in human α4β2 subtype of nicotinic acetylcholine receptors are examined by using human nicotinic acetylcholine receptors prepared in oocytes of Xenopus laevis, which is injected with cRNA from the corresponding cloning cDNA of human α4 and β2 subunits of nicotinic acetylcholine receptors, and to measure the expression of electric response by adding the test compounds to perfusion solution by means of membrane potential holding method.
Agonist Activities at Human α4β2 Subtype of Nicotinic Acetylcholine Receptors
(1) Preparation of cRNA of Human α4β2 Subtype of Nicotinic Acetylcholine Receptors
Obtained hnACh-R α4 cDNA and hnACh-R β2 cDNA were inserted to the cRNA expression vector (pSP64 polyA) having SP6 RNA promoter to construct hnACh-R α4/pSP64 polyA and hnACh-R β2/pSP64 polyA, respectively. After cutting from expression vector by restriction enzyme (EcoRI), transcription was performed by affecting SP6 RNA polymerase in the presence of cap analogues to obtain hnACh-R α4 cRNA and hnACh-R β2 cRNA, respectively.
(2) Expression of Human α4β2 Subtype Nicotinic Acetylcholine Receptors in Xenopus oocytes
Oocytes were purchased from Kitanihonseibutsukyohzai Co., Ltd., which were already enucleated from Xenopus laevis, and used in this experiment.
The oocytes were treated with collagenase (Sigma type I; 1 mg/ml) in calcium-free modified Birth's solution (88 mM of NaCl, 1 mM of KCl, 2.4 mM of NaHCO3, 0.82 mM of MgSO4, 15 mM of HEPES, pH 7.6) under gently stirring at room temperature for 90 minutes, and washed out the enzyme from the tissue. Then, oocytes were separated from ovarian follicle by tweezers, and isolated oocytes were placed in antibiotics containing modified Birth's solution (88 mM of NaCl, 1 mM of KCl, 2.4 mM of NaHCO3, 0.82 mM of MgSO4, 15 mM of HEPES, pH 7.6, and 0.1 v/v% of mixture solution containing of penicillin and streptomycin for incubation; Sigma Co.). […] In oocytes, heterogeneous quintuple [(α4)2(β2)3] was composed by translation of injected cRNAs, and ion channel receptors were constructed on cell membrane.
(3) Agonist Activities at Human α4β2 Subtype of Nicotinic Acetylcholine Receptors
Recordings of response at human α4β2 subtype of nicotinic acetylcholine receptors by means of membrane potential holding method were performed as follow. […] Test compounds were added to the perfusion solution, and recorded the peak strength of induced inward current. In order to normalize the response of test compounds, the response with acetylcholine (Ach) were recorded before and after application of the test compounds. Generally in the oocytes just after isolated, the response of intrinsic muscarinic acetylcholine receptors, which is inward electric current caused by activation of calcium dependence chloride ion channels with increase of the intracellular calcium concentration by stimulation of receptors, is observed. […] Therefore, the responses observed in oocytes with injection of hnACh-R α4 cRNA and hnACh-R β2 cRNA, i.e., the inward current induced by the intracellular influx of sodium ion according to the stimulation of receptors, would be the freshly observed responses of human α4β2 subtype nicotinic acetylcholine receptors.

Setting [3] is: rat brain membrane, [3H]-cytisine (2 nM), read-out: Affinities for receptors Ki α4β2.
[4] abbreviates: 100 μM test compound, in comparison with the response at 10 μM acetylcholine (100%).
The mark [5] stands for this setting: Xenopus oocytes expressing human α4β2, held at −50 mV, peak inward current, read-out: Agonist activity (ED50).

T1 sequence (P09483 31-630): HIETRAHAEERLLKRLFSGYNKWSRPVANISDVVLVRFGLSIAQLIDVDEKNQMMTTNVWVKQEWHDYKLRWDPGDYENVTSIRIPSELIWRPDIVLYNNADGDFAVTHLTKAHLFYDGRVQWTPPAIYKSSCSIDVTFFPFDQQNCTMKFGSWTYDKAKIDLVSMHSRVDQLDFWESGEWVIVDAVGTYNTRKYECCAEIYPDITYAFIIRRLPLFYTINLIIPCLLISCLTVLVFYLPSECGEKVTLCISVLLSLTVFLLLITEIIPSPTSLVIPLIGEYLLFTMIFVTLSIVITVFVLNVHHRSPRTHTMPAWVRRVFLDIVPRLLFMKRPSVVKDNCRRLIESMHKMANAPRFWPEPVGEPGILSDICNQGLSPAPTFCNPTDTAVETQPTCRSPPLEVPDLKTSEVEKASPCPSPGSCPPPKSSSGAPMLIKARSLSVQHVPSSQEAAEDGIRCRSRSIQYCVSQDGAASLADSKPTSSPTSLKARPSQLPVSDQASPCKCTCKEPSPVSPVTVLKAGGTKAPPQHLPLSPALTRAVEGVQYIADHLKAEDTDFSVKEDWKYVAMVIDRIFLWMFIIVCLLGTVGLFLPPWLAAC
T1 sequence (P12390 25-500): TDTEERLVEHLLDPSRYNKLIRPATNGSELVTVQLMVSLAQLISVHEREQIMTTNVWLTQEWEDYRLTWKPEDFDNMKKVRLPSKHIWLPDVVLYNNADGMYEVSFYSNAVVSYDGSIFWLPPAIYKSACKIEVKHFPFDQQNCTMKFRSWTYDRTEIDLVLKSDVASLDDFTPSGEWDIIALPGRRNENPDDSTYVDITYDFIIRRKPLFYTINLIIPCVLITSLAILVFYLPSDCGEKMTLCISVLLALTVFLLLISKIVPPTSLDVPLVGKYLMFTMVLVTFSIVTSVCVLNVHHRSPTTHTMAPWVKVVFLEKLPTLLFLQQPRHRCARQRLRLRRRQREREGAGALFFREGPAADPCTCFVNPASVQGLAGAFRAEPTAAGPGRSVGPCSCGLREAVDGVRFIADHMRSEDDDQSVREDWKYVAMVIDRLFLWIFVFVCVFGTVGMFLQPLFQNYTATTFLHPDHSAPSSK

Broadly, the Ki is the equilibrium dissociation constant of an inhibitor or competing ligand from its target. Take `N=C1SCCN1Cc1ccc(Cl)nc1` [Compound 5, 3-(6-chloro-3-pyridyl)methyl-2-iminothiazolidine]: the inhibition constant Ki in test [1] (setting [3]) is 2.2 nM. The Emax at 100 µM in test [2] (setting [4]) came to 4.9%.

With `N=c1ccccn1Cc1ccc(Cl)nc1` [Compound 7, 1-(6-chloro-3-pyridyl)methyl-2-imino-1,2-dihydropyridine], the inhibition constant (Ki) in test [1] (setting [3]) amounted to 3.1 nM. In addition, the Emax at 100 µM in test [2] (setting [4]) amounted to 16%.

As for `N=c1sccn1Cc1ccc(Cl)nc1` [Compound 8, 3-(6-chloro-3-pyridyl)methyl-2-imino-2,3-dihydrothiazole], in test [1] (setting [3]), the inhibition constant (Ki) was 0.5 nM. In test [2] (setting [5]), the EC50 is 4200 nM.

Turning to `Nc1nccn1Cc1ccc(Cl)nc1` [Compound 9, 2-amino-1-(6-chloro-3-pyridyl)methylimidazole], in test [1] (setting [3]), the Ki came out at 22.2 nM. Moreover, the EC50 in test [2] (setting [5]) stood at 92000 nM.

As for `N=c1sccn1Cc1ccc(Br)nc1` [Compound 11, 3-(6-bromo-3-pyridyl)methyl-2-imino-2,3-dihydrothiazole], the inhibitory constant (Ki) in test [1] came out at 0.63 nM. The Emax at 100 µM in test [2] stood at 47%.

As for `N=c1sccn1Cc1ccc(F)nc1` [Compound 12, 3-(6-fluoro-3-pyridyl)methyl-2-imino-2,3-dihydrothiazole], the inhibition constant (Ki) in test [1] was found to be 1.89 nM. Besides, in test [2], the Emax at 100 µM is 21%.

As to `N=C1NCCN1Cc1ccc(Cl)nc1` [Compound 13, 1-(6-Chloro-3-pyridyl)methyl-2-iminoimidazolidine], in test [1] (setting [3]), the inhibition constant Ki was 4.6 nM. Further, the EC50 in test [2] (setting [5]) worked out at 14700 nM.

Turning to `N=C1CCCN1Cc1ccc(Cl)nc1` [Compound 14, 1-(6-Chloro-3-pyridyl)methyl-2-iminopyrrolidine], in test [1] (setting [3]), the Ki is 1.9 nM. The compound also returned an EC50 in test [2] of 27100 nM.

For `N=C1SCCN1Cc1ccc(Cl)cc1` [Compound 31, 3-(4-chlorobenzyl)-2-iminothiazolidine], the Ki in test [1] worked out at 93 nM. In test [2], the Emax at 100 µM turned out to be 4%.

For `N=C1SCCN1Cc1ccnnc1` [Compound 33, 2-imino-3-(4-pyridazinyl)methylthiazolidine], in test [1], the Ki was found to be 32 nM. Moreover, the Emax at 100 µM in test [2] came to 6%.

In turn, `N=C1SCCN1Cc1cnc(Cl)s1` [Compound 34, 3-(2-chloro-5-thiazolyl)methyl-2-iminothiazolidine] came in with a Ki in test [1] of 4.9 nM. Besides, the Emax at 100 µM in test [2] was found to be 13%.

`N=c1ccc(-c2ccccc2)nn1Cc1ccc(Cl)nc1` [Compound 44, 2-(6-chloro-3-pyridyl)methyl-3-imino-6-phenyl-2,3-dihydropyridazine]: the inhibition constant Ki in test [1] is 64 nM. In addition, the Emax at 100 µM in test [2] came out at 10%.

As to `Nc1nccn1Cc1cccnc1` [Compound 55, 2-amino-i-(3-pyridyl)methylimidazole], in test [1] (setting [3]), the Ki was 43 nM. The Emax at 100 µM in test [2] (setting [4]) was found to be 17%.
